ChEMBL document CHEMBL1201862, “PubChem BioAssay data set” (2004)
The source made the active and inactive calls. For most assays here, no stated cut-off is given here; in the data, actives have a measured EC50 and inactives only a lower limit.

Assays:
[1] = target: T1, RNA-binding protein pos-1 (Caenorhabditis elegans, UniProt G5EF15); test: disruptors of C. elegans POS-1 RNA interaction – biochemical, fluorescence polarization, dose response (AID 1964);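 further: purified POS-1 fused to maltose binding protein made in E. coli; potency of compounds blocking POS-1 binding to fluorescent RNA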
T1 sequence (G5EF15 whole entry): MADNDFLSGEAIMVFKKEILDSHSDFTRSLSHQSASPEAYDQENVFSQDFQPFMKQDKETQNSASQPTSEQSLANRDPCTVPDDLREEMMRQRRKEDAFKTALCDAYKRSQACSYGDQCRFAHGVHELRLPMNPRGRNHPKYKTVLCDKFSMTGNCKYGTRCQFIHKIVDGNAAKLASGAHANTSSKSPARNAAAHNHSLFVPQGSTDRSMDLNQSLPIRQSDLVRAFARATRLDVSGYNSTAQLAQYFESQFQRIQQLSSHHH

[2] = target: T2, Zinc finger protein mex-5 (Caenorhabditis elegans, UniProt Q9XUB2); test: potency of MEX-5 RNA-binding blockers – biochemical, C. elegans, fluorescence polarization, dose response (AID 1960)
T2 sequence (Q9XUB2 whole entry): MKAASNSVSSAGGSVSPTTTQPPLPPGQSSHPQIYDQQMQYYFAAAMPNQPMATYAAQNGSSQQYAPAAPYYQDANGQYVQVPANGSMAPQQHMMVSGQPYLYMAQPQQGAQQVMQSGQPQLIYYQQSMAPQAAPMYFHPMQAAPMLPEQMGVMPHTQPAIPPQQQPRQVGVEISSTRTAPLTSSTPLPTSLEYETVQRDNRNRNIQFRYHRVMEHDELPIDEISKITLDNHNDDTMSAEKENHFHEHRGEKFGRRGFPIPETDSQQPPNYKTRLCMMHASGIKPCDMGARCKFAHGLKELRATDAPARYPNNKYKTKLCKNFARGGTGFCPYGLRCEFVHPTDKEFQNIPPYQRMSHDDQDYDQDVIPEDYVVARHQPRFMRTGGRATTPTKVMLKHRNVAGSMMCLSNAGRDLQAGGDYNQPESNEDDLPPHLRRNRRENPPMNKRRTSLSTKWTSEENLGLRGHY

[3] = target: T3, Rac GTPase-activating protein 1 (Homo sapiens, UniProt Q9H0H5); test: blockers of MgcRacGAP-driven Rac1 GTP hydrolysis – biochemical, ADP Hunter fluorescence, primary and confirmatory, confirmation (AID 624330); assay type: functional
T3 sequence (Q9H0H5 whole entry): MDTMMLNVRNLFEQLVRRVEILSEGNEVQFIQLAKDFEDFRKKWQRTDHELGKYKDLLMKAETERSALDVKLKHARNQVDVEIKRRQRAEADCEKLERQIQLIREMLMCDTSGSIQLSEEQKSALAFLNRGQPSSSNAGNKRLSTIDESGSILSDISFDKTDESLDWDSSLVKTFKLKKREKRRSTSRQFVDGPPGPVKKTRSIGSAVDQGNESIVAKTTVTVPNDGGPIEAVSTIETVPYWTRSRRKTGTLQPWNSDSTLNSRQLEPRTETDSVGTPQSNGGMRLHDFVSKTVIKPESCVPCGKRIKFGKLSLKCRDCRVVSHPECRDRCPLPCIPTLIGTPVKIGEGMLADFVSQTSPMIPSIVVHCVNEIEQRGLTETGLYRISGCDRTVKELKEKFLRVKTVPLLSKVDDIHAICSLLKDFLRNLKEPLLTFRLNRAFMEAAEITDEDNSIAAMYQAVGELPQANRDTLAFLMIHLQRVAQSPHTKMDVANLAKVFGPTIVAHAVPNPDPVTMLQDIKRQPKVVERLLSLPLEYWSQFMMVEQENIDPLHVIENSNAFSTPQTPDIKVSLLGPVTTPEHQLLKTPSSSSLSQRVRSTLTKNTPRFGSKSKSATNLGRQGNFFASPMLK

[4] = viability of PTEN-deleted HCT116 cells – cell-based, HCT116 PTEN knockout, dose response (AID 1047); assay type: functional;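 further: HCT116 colon tumor cells with PTEN knocked out; cells exposed to compound for 60 hours before readout; potency for loss of cell viability measured by luminescence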
[5] = viability of HCT116 lacking mutant beta-catenin – cell-based, human colon tumor, dose response (AID 1045); assay type: functional;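 further: HCT116 colon tumor cells with beta catenin knocked out; cells exposed to compound for 60 hours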
[6] = test system: Streptococcus sp. 'group A'; test: Streptococcus pyogenes SK(-)GAS viability under kanamycin – luminescence, BacTiterGlo, confirmation, counter-screen for streptokinase expression inhibitor project, dose response (AID 1900); assay type: functional, organism-based
Streptococcus = test: GAS UMAA2166 growth inhibition – luminescence, BacTiterGlo, counter-screen for streptokinase expression inhibitor project, dose response (AID 1915); assay type: functional, organism-based;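 further: potency for reduction of bacterial viability or growth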
Streptokinase A = target: T4, Streptokinase A (Streptococcus pyogenes serotype M1, UniProt P10520); test: viability-normalized secreted streptokinase activity reduction – plasminogen activation absorbance, OD405, dose response (AID 1914); assay type: functional, Streptococcus pyogenes M1 GAS;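 further: secreted streptokinase activity via plasminogen activation per viability signal from cell pellet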
T4 sequence (P10520 whole entry): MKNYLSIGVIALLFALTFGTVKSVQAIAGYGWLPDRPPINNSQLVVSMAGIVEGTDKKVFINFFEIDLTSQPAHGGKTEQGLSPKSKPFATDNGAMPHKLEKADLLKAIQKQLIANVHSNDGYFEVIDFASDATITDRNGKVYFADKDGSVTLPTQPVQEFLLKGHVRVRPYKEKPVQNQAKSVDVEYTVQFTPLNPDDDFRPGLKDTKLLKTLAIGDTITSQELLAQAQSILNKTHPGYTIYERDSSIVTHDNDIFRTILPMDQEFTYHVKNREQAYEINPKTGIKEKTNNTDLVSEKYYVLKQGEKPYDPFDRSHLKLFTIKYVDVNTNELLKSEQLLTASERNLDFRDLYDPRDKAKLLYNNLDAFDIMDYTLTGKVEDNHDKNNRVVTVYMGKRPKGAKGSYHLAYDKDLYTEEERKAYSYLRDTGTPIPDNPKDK

Vero = test: cells; assay type: functional, Chlorocebus sabaeus; details: Chlorocebus sabaeus, Vero
[7] = NIH3T3 cell viability loss – ATP luminescence, mouse fibroblasts, counter-screen, dose response (AID 2010); assay type: functional, cell-based;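 further: cells exposed to compound for about 90 hours before reading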
[8] = Trypanosoma cruzi growth suppression in host cells – NIH3T3 host cells, beta-gal luminescence, confirmation (AID 2044); assay type: functional, cell-based;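 further: intracellular parasites grown in NIH/3T3 mouse fibroblasts as host cells; luminescent beta-galactosidase reporter signal from transgenic T. cruzi replicating inside host cells; inhibitors lower the luminescence signal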
[9] = target: T5, Heat shock factor protein 1 (Mus musculus, UniProt P38532); test: decrease of HSF1-responsive luciferase luminescence – cell-based, NIH3T3, dose retest, confirmation (AID 2382); assay type: functional;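 further: NIH3T3 fibroblasts with HSF1-driven luciferase reporter stressed by proteasome inhibitor MG132; luminescence from HSF1-driven luciferase expression after 8 hours of MG132 stress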
T5 sequence (P38532 whole entry): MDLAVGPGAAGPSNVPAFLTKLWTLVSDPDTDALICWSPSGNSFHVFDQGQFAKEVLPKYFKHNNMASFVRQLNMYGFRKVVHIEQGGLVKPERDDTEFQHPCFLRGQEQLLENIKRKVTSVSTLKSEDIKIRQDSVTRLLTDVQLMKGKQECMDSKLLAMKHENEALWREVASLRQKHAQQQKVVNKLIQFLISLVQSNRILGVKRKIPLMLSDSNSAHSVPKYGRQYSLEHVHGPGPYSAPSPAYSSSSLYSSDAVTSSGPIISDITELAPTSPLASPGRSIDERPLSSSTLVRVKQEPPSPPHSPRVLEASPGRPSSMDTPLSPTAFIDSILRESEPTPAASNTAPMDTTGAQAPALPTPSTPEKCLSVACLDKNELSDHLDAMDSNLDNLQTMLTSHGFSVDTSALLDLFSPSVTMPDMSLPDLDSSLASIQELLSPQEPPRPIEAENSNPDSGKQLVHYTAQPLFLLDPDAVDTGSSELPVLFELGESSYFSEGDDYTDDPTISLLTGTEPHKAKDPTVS

[10] = HIV-1 AD8 envelope cell-cell fusion blockers – cherry-pick, dose response (AID 652062); assay type: functional, cell-based;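 further: luciferase signal from cell-cell fusion driven by HIV-1 clade B AD8 Env; potency is for inhibitors of fusion seen as a drop in luminescence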
[11] = Luminescence Cell-Based Dose Response HTS to Identify Activators of Luciferase Translation or Activity in H4 […] Cells. [Related pubchem assays: 1829 (Project Summary), 1814 (Primary HTS)]; assay type: functional
[12] = Luminescence Cell-Based Dose Confirmation HTS to Identify Activators of 5'UTR Stem-Loop Driven Alpha-Synuclein mRNA Translation in H4 Neuroglioblastoma Cells. [Related pubchem assays: 1829 (Project Summary), 1814 (Primary HTS)]; assay type: functional
H4 = test: Luminescence Cell-Based Dose Response HTS to Identify Activators of 5'UTR Stem-Loop Driven Prion Protein mRNA Translation in H4 Neuroglioblastoma Cells. [Related pubchem assays: 1829 (Project Summary), 1814 (Primary HTS)]; assay type: functional; details: Homo sapiens

## O=C(O)c1ccccc1-n1cccc1C(=O)O
[1]
  EC50: > 300 µM (not active)
[2]
  EC50: > 300 µM (not active)

## O=C(c1ccccc1F)N1CCN(Cc2ccc3c(c2)OCO3)CC1
[3]
  IC50: 125 µM (active)

## O=C1c2cccc3c([N+](=O)[O-])ccc(c23)C(=O)N1c1nccs1
[4]
  EC50: 21.6 µM (active)
[5]
  EC50: 11.9 µM (active)

## CCOC(=O)c1c(O)cc(C)cc1Nc1ccccc1
[6]
  EC50: > 150 µM (not active)
Streptococcus
  EC50: > 150 µM (not active)
Streptokinase A
  EC50: 139 µM (active)

## Cc1ccc(NCc2nnc(SCC(=O)Nc3ncc(C)s3)n2Cc2ccco2)c(C)c1
[4]
  EC50: 23.3 µM (active)
[5]
  EC50: 23.8 µM (active)

## O=c1c2ccccc2nc(CSc2[nH]cnc3ncnc2-3)n1-c1ccccc1
[4]
  EC50: 14.9 µM (active)
[5]
  EC50: 28.9 µM (active)

## COC(=O)CCC(=O)OC1(C)C(=O)C=C2C=C(C3CC3)N(c3ccc(CO)cc3)C=C2C1=O (stereo not given)
[1]
  EC50: 25.5 µM (active)
[2]
  EC50: 23.5 µM (active)

## O=C(CCN1C(=O)C2C3C=CC(C4CC34)C2C1=O)Oc1cccc2cccnc12 (stereo not given)
[4]
  EC50: 18.8 µM (active)
[5]
  EC50: 16.7 µM (active)

## Oc1ccc(N2CCN(Cc3cc4c(cc3Br)OCCO4)CC2)cc1
[3]
  IC50: 66.7 µM (active)

## Cc1cc([N+](=O)[O-])cc2c1NCC1CC=CC21 (stereo not given)
[1]
  EC50: > 300 µM (not active)
[2]
  EC50: > 300 µM (not active)

## Cc1cc(/C=C2/C(=N)N3C(=NC2=O)SN=C3S(C)(=O)=O)c(C)n1-c1ccc(F)cc1
[6]
  EC50: 9.96 µM (active)
Streptococcus
  EC50: > 150 µM (not active)
Streptokinase A
  EC50: > 150 µM (not active)

## Nc1c(C(=O)NCc2ccc(F)cc2)c2nc3ccccc3nc2n1CCCN1CCOCC1
[4]
  EC50: 21.5 µM (active)
[5]
  EC50: 18.9 µM (active)

## Cc1noc(C)c1-c1nnc(-c2ccc(OC(F)(F)F)cc2)o1
[6]
  EC50: > 150 µM (not active)
Streptococcus
  EC50: > 150 µM (not active)
Streptokinase A
  EC50: > 150 µM (not active)

## Cc1noc(/C=C/c2cccnc2)c1[N+](=O)[O-]
Vero
  CC50: 17.3 µM (active)
[7]
  EC50: 18.4 µM (active)
[8]
  EC50: 2.34 µM (active)

## Cc1cc2nc(N=C(N)NC(=O)C(C)C)nc(C)c2cc1C
Streptokinase A
  EC50: > 150 µM (not active)

## CCn1nccc1C(=O)Nc1ccc(S(=O)(=O)NC23CC4CC(CC(C4)C2)C3)cc1
[4]
  EC50: 24.3 µM (active)
[5]
  EC50: 27.9 µM (active)

## COCCn1c(N)c(NCc2ccccc2)c(=O)[nH]c1=O
[1]
  EC50: 5.47 µM (inconclusive)
[2]
  EC50: 3.03 µM (active)

## Cc1ccc(N2C(=O)NC(=O)/C(=C/c3cnn(-c4ccc(C)cc4)c3)C2=O)cc1
[1]
  EC50: > 300 µM (not active)
[9]
  EC50: > 195 µM (not active)
[2]
  EC50: 67.5 µM (active)

## O=C(Nc1cccn(Cc2c(Cl)cccc2Cl)c1=O)c1ccc(Cl)cc1
[10]
  AC50: 8.74 µM (active)

## Cc1n[nH]c(C)c1S(=O)(=O)N1CCCC(C(=O)Nc2ccc(Br)cc2)C1 (stereo not given)
[1]
  EC50: > 300 µM (not active)
[11]
  EC50: > 120 µM (not active)
[12]
  EC50: > 120 µM (not active)
[2]
  EC50: > 300 µM (not active)
H4
  EC50: > 120 µM (not active)

## COc1cc(NC(=O)CSc2ncnc3sc4c(c23)CCCC4)c(C(=O)O)cc1OC
[6]
  EC50: 20.8 µM (active)
Streptococcus
  EC50: > 150 µM (not active)
Streptokinase A
  EC50: > 150 µM (not active)

## CN1CCN(C(=O)CCN2C(=O)/C(=C\c3ccc(Cl)cc3)SC2=S)CC1
Vero
  CC50: 15.8 µM (active)

## COc1ccc(NC2CCCN(C(=O)c3csc(C)n3)C2)cc1 (stereo not given)
[3]
  IC50: 107 µM (active)

## O=C(C[C@H]1C[C@H]2c3cc(NC(=O)C4CCC4)ccc3O[C@H]2[C@H](CO)O1)NCc1ccc2c(c1)OCO2
[10]
  AC50: 4.08 µM (active)

## OC(C/N=c1\sc2ccccc2n1CC(O)COc1ccccc1)COc1ccccc1 (stereo not given)
[6]
  EC50: 8.85 µM (active)
Streptococcus
  EC50: > 150 µM (not active)
Streptokinase A
  EC50: 10.3 µM (active)

## O=C1N=C(N/N=C/c2cccs2)SC1Cc1ccc(Cl)c(Cl)c1 (stereo not given)
Streptococcus
  EC50: > 150 µM (not active)
[9]
  EC50: 21 µM (active)
Streptokinase A
  EC50: > 150 µM (not active)

## CCN1CCN(c2cc(C)c3cc(NC(=O)c4cccc(OC)c4)ccc3n2)CC1
[11]
  EC50: 16 µM (active)
Vero
  CC50: > 25 µM (active)
[12]
  EC50: 13.5 µM (active)
H4
  EC50: 17.9 µM (active)
